From ChEMBL document CHEMBL3407429, “Multifunctional tacrine-trolox hybrids for the treatment of Alzheimer's disease with cholinergic, antioxidant, neuroprotective and hepatoprotective properties” (Eur J Med Chem, 2015)
The source made the active and inactive calls. No cut-off for these calls is given here.

Legend:
[1] = in vitro; conditions: PAMPA
Description: Permeability of the compound in PBS and EtOH by PAMPA method

[2] = molecular target: Acetylcholinesterase (Electrophorus electricus, UniProt O42275)
Description: Inhibition of electric eel AChE using acetylthiocholine iodide as substrate preincubated for 6 mins before substrate addition by Ellman's method

[3] = molecular target: Acetylcholinesterase (Homo sapiens, UniProt P22303)
Chain of Acetylcholinesterase (Homo sapiens, UniProt P22303) (P22303 whole entry): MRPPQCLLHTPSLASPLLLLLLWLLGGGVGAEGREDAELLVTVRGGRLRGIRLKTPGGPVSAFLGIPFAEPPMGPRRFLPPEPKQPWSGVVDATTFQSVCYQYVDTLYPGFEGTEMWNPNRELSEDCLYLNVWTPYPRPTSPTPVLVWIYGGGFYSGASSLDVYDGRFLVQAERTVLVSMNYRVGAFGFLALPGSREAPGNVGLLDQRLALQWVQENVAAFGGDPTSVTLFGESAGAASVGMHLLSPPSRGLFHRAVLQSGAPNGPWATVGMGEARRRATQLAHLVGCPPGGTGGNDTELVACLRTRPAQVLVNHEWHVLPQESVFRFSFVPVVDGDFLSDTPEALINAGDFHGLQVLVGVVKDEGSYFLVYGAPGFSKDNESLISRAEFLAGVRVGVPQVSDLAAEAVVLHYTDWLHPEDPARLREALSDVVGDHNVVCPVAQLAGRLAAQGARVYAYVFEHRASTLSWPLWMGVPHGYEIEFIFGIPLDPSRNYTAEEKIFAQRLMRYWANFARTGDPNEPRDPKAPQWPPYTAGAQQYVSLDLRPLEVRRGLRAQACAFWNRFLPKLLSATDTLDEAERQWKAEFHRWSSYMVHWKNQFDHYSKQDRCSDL
Description: Inhibition of human erythrocyte AChE using acetylthiocholine iodide as substrate preincubated for 6 mins before substrate addition by Ellman's method

[4] = molecular target: Cholinesterase (Homo sapiens, UniProt P06276)
Chain of Cholinesterase (Homo sapiens, UniProt P06276) (P06276 whole entry): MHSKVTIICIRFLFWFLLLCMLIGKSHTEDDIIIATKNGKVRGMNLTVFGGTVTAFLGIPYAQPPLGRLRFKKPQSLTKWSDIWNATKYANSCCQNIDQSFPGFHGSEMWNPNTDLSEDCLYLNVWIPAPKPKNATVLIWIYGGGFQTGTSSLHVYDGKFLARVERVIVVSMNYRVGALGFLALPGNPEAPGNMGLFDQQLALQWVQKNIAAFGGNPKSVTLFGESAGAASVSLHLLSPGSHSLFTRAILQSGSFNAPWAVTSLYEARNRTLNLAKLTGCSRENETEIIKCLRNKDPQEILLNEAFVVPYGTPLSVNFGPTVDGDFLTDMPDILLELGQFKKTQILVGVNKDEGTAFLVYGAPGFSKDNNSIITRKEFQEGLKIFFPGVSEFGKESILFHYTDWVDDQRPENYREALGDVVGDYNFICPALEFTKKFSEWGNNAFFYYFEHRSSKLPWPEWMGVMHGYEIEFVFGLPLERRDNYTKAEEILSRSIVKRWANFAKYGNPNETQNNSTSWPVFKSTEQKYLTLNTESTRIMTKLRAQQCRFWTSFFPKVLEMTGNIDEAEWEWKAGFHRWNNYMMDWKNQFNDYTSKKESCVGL
Description: Inhibition of human serum BuChE using S-butyrylthiocholine iodide as substrate preincubated for 6 mins before substrate addition by Ellman's method

[5] = molecular target: Cholinesterase (Equus caballus, UniProt P81908)
Chain of Cholinesterase (Equus caballus, UniProt P81908) (P81908 whole entry): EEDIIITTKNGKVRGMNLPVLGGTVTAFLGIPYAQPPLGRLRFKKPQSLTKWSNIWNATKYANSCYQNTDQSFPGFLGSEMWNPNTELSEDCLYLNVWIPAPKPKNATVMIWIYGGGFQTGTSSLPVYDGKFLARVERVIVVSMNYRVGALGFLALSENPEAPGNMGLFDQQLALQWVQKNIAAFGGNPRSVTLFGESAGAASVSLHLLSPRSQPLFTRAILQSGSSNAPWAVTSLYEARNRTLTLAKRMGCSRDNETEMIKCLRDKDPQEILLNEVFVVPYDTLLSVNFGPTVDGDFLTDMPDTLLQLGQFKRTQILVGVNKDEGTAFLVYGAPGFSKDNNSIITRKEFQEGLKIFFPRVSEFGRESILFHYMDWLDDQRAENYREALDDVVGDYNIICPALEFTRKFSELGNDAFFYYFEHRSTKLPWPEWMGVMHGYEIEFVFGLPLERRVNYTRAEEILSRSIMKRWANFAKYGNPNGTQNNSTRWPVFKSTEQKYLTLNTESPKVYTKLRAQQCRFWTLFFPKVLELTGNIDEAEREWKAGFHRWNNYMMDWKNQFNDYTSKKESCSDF
Description: Inhibition of equine serum BuChE using S-butyrylthiocholine iodide as substrate preincubated for 6 mins before substrate addition by Ellman's method

[6] = tested on: Rattus norvegicus; test: Hepatotoxicity in Sprague-Dawley rat assessed as increase in aspartate aminotransferase activity in serum at 6 umol/100g body weight, ip measured up to 72 hrs; assay type: toxicity, organism-based; conditions: in vivo
[7] = tested on: PC-12; test: Neuroprotective activity against H2O2-induced oxidative stress in rat PC12 cells assessed as cell viability preincubated at 12.5 to 6.25 uM for 2 hrs before H2O2 addition measured after 24 hrs by MTT assay; assay type: functional, cell-based
[8] = Cytotoxicity against rat PC12 cells assessed as reduction in cell viability at 1.563 to 12.5 uM after 48 hrs by MTT assay; assay type: cell-based; conditions: pc-12, 48 h
[9] = molecular target: Acetylcholinesterase (Electrophorus electricus) (UniProt O42275); test: Mixed-type inhibition of electric eel AChE using acetylthiocholine iodide as substrate by Lineweaver-Burk double reciprocal plot method
Chain of Acetylcholinesterase (Electrophorus electricus) (O42275 24-633 limits assumed): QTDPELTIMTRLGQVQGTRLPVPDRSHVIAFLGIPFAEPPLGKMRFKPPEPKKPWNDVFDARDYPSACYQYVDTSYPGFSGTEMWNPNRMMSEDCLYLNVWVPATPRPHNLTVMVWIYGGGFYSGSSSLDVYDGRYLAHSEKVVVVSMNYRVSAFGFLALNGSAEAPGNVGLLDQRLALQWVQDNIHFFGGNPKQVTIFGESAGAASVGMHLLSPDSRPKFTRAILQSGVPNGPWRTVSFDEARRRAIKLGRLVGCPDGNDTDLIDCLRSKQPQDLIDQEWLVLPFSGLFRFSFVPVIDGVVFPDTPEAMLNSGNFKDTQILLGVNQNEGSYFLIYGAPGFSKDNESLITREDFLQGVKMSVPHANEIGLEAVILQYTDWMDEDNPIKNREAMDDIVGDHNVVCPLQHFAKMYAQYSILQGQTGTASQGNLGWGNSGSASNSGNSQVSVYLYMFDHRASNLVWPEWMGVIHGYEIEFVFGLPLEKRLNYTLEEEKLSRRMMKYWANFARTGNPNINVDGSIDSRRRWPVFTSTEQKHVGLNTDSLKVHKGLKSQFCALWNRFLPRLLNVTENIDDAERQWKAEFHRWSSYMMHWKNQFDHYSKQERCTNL

[10] = tested on: Rattus norvegicus; test: Hepatotoxicity in Sprague-Dawley rat assessed as increase in alanine aminotransferase activity in serum at 6 umol/100g body weight, ip measured up to 72 hrs; assay type: toxicity, organism-based; conditions: in vivo
[11] = tested on: Rattus norvegicus; test: Hepatotoxicity in Sprague-Dawley rat at 6 umol/100g body weight, ip measured after 24 hrs by histomorphological study; assay type: toxicity, organism-based; conditions: in vivo
[12] = tested on: PC-12; test: Neuroprotective activity against H2O2-induced oxidative stress in rat PC12 cells assessed as inhibition of cell death preincubated at 3.125 to 6.25 uM for 2 hrs before H2O2 addition measured after 24 hrs by MTT assay; assay type: functional, cell-based

Chain of Acetylcholinesterase (Electrophorus electricus, UniProt O42275) (O42275 whole entry): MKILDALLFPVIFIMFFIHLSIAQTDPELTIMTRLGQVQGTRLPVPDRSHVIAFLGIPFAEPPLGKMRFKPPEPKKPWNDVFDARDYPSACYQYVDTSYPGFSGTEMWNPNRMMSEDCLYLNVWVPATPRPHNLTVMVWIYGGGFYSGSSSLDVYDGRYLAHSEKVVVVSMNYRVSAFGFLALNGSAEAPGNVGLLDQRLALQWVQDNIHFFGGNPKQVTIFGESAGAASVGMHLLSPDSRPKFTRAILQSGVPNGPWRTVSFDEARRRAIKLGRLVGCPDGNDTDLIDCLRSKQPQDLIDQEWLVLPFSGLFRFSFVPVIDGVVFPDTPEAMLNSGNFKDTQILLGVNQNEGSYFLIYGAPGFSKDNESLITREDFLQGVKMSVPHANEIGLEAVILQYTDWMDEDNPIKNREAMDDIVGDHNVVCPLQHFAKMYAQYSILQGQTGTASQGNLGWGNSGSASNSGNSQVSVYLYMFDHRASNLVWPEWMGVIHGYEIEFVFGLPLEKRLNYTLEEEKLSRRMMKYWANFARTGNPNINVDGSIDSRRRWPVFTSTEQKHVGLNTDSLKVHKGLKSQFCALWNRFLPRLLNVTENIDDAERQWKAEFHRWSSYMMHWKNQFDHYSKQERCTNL

Row | Structure (SMILES) | IC50 [nM] | Papp [1] [×10⁻⁶ cm/s] | IC50 [2] [nM] | IC50 [3] [nM] | IC50 [4] [nM] | IC50 [5] [nM] | also measured
1 | Cc1c(C)c2c(c(C)c1O)CCC(C)(C(=O)O)O2 (configuration not stated) [TROLOX] | 35.6 | – | – | – | – | – | –
2 | CN1C(C(=O)Nc2ccccn2)=C(O)c2ccccc2S1(=O)=O [PIROXICAM] | – | 0.6 | – | – | – | – | –
3 | Cc1c(C)c2c(c(C)c1O)CCC(C)(C(=O)NCCCCCNc1c3c(nc4ccccc14)CCCC3)O2 (configuration not stated) | 40.7 | – | 250 | 215 | 10.2 | 35.4 | –
4 | Cc1c(C)c2c(c(C)c1O)CCC(C)(C(=O)NCCCCCCCCCCNc1c3c(nc4ccccc14)CCCC3)O2 (configuration not stated) | 43.2 | – | 387 | 453 | 110 | 263 | –
5 | Cc1c(C)c2c(c(C)c1O)CCC(C)(C(=O)NCCNc1c3c(nc4ccccc14)CCCC3)O2 (configuration not stated) | 30.4 | – | 150 | 284 | 56.3 | 41.3 | –
6 | C[C@]12CCC(=O)C=C1CC[C@@H]1[C@@H]2CC[C@@]2(C)[C@H]1CC[C@]2(O)C(=O)CO [CORTODOXONE] | – | 2.5 | – | – | – | – | –
7 | Cc1c(C)c2c(c(C)c1O)CCC(C)(C(=O)NCCCCCCCNc1c3c(nc4ccccc14)CCCC3)O2 (configuration not stated) | 46.9 | – | 92.4 | 144 | 19.2 | 61.7 | –
8 | CCn1cc(C(=O)O)c(=O)c2cc(F)c(N3CCNC(C)C3)c(F)c21 (configuration not stated) [LOMEFLOXACIN] | – | 0.8 | – | – | – | – | –
9 | Cc1c(C)c2c(c(C)c1O)CCC(C)(C(=O)NCCCCCCCCNc1c3c(nc4ccccc14)CCCC3)O2 (configuration not stated) | 47.3 | – | 228 | 226 | 34.7 | 151 | –
10 | Cc1c(C)c2c(c(C)c1O)CCC(C)(C(=O)NCCCCCCNc1c3c(nc4ccccc14)CCCC3)O2 (configuration not stated) | 48.7 | 8.87 | 9.8 | 23.5 | 20.5 | 22.2 | Activity [6]: Non-toxic; inhibition [7]: inactive; Activity [8]: Non-toxic; inhibition [9]: Active; Activity [10]: Non-toxic; Activity [11]: Non-toxic; inhibition [12]: Active
11 | Cc1c(C)c2c(c(C)c1O)CCC(C)(C(=O)NCCCCNc1c3c(nc4ccccc14)CCCC3)O2 (configuration not stated) | 44.2 | – | 558 | 535 | 5.2 | 15.6 | –
